In patent US20150133388A1, “ACETYLATED CRYSTALLIN POLYPEPTIDES AND MIMETICS THEREOF AS THERAPEUTIC AGENTS” (Case Western Reserve University, priority 2012, published 2015):
No end group written: not given here.

T1: citrate synthase (CS) (Sus scrofa, UniProt P00889)
T1 construct: purchased Sigma-Aldrich Chemical Co. (St. Louis, Mo.)
T1 sequence (P00889 28-464): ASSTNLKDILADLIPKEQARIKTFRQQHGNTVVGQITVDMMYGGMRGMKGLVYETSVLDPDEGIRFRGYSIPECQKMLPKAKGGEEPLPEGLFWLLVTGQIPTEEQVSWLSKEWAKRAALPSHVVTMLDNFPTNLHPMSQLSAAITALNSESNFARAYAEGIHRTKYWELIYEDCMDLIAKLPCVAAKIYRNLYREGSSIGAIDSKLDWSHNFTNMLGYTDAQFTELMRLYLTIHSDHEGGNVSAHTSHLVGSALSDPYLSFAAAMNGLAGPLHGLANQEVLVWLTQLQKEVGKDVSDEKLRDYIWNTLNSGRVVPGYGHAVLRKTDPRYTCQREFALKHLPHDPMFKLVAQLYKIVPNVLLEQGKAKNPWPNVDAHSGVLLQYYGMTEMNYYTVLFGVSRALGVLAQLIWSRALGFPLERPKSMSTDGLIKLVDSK


What was measured:
[1] = molecular target: T1, citrate synthase (CS); assay: Chaperone assay, client protein citrate synthase; assay type: biochemical
Experimental: (§1) Chaperone assays were performed as previously described. The ratios of the peptides: client proteins (w/w) were as follows: citrate synthase, 1:2.5; insulin, 1:10; βL-crystallin, 1:1.5; and γ-crystallin, 1:1. The scrambled αA-crystallin peptide was tested in certain assays at peptide: client protein ratios as follows: citrate synthase, 1:1.25, insulin, 1:5 to determine peptide specificity.

[2] = tested on: insulin (IN); assay: Chaperone assay, client protein insulin; assay type: biochemical
Experimental: as §1

[3] = tested on: βL-crystallin (BLC); assay: Chaperone assay, client protein βL-crystallin; assay type: biochemical; settings: peptide:βL-crystallin 1:1.5 (w/w)
Experimental: as §1

[4] = tested on: γ-crystallin (GC); assay: Chaperone assay, client protein γ-crystallin; assay type: biochemical; settings: peptide:γ-crystallin 1:1 (w/w)
Experimental: as §1

[5] = tested on: CHO cells; assay: Hyperthermia-induced apoptosis in CHO cells (Hoechst stain); assay type: cell-based, Chinese hamster; settings: for inhibition of apoptosis: untreated rate ~28%
Experimental: (§2) Human lens epithelial cells (HLE) were isolated from the lens of a donor and cultured in DMEM supplemented with 10% FBS as previously described for mouse lens epithelial cells. Cells between passages 5 and 6 were used for the experiments. Chinese hamster ovary (CHO) cells were cultured in Ham's F12 medium. The α-crystallin peptides were mixed with a cationic lipid, BIOPORTER (BP), according to the manufacturer's instructions (Polyplus transfection reagent, Illkirch, France). When the cultures reached 70-80% confluence, the cells were treated with BP either alone or with the peptides in serumfree medium and incubated for 4 h at 37° C. in a humidified 5% CO2 atmosphere. The cells were then washed with PBS and incubated at 43° C. for 1 h (thermal stress), followed by incubation at 37° C. for 16 h for recovery. The percentage of apoptotic cells was determined by staining the cells with Hoechst. Cells incubated at 37° C. without thermal stress were used as controls.

[6] = tested on: Human lens epithelial cells (HLE); assay: Hyperthermia-induced apoptosis in HLE cells (Hoechst stain); assay type: cell-based; settings: 43° C. 1 h; for rate of apoptosis after peptide pretreatment: 4 μg/ml in BP 4 h, without peptide nearly 40%
Experimental: as §2

[7] = tested on: caspase-3; assay: Caspase-3 activity in thermally stressed CHO cells; assay type: cell-based, Chinese hamster; settings: 4 μg/ml
Experimental: (§3) Cells were lysed in cell lysis buffer (Cell signaling), and lenses were homogenized in 50 mM Tris-buffered saline. Both buffers contained a protease inhibitor cocktail (1:100 dilution). An equal volume of a fluorogenic substrate solution[2× reaction buffer: 10 mM DTT and 50 μM Ac-DEVD-AFC (for caspase-3) or Ac-LEHDAFC (for caspase-9)] was added to each lysate. The lysates were then incubated for 2 h at 37° C. in the dark. The samples were analyzed with a […] spectrofluorometer (HORIBA Scientific, Edison, N.J.) at excitation/emission wavelengths 400/505 nm.

[8] = tested on: caspase-9; assay: Caspase-9 activity in thermally stressed CHO cells; assay type: cell-based, Chinese hamster; settings: 4 μg/ml
Experimental: as §3

[9] = tested on: selenite-induced cataracts; assay: Selenite-induced cataract in rat pups (slit lamp); assay type: in vivo
Experimental: (§4) Neonatal Sprague-Dawley rat pups (12 days old) were used for these experiments. The pups in the experimental groups received a single subcutaneous injection of sodium selenite (4 mg/Kg body weight) on day 12. Peptides diluted from a stock in sterile water (dissolved by adding 2 μl of 10 N NaOH to a 1.0 ml stock) were injected intraperitoneally (at 2.5, 5, or 10 μg/animal) 6 h prior to selenite injection (single injection). When multiple injections were performed, one pre-selenite injection was administered, as above, followed by four additional injections on four consecutive days after the sodium selenite injection. One group served as the control (no treatment) and another as the selenite control (no peptide injection). The lenses were examined on day 17 (when the pups had opened their eyes) using a slit lamp microscope (after dilating the pupil through topical application of tropicamide) and photographed. For hematoxylin and eosin (H & E) and TUNEL staining, eyes were fixed immediately after enucleation in a 10% buffered formalin solution overnight.

[10] = tested on: lens protein aggregation; assay: Histology (H&E) of lens protein aggregation in selenite cataract; assay type: in vivo, rat; settings: multiple injections 10 μg
Experimental: as §4

[11] = tested on: lens epithelial cells; assay: Lens epithelial cell apoptosis in selenite cataract (in situ TUNEL); assay type: in vivo, rat; settings: multiple 10 μg injections
Experimental: as §4

[12] = tested on: lens epithelial cells; assay: Calcimycin-induced apoptosis in organ-cultured mouse lenses (TUNEL); assay type: cell-based; settings: 5 μM calcimycin
Experimental: The animal experiments conformed to the ARVO Statement for the Use of Animals in Ophthalmic and Vision Research and were approved by the CWRU's Animal Care and Use Committee. Lenses were dissected from the eyes of ˜3-month-old C57B1/6 mice and maintained in artificial aqueous humor (AAH) (113 mM NaCl, 4.5 mM KCl, 1 mM MgCl2, 1.5 mM CaCl2, 6 mM D-glucose, 10 mM HEPES, 20 mM NaHCO3, and 1:1,000 penicillin/streptomycin, pH 7.3). Lenses that developed opacification within 24 h were discarded. Native and acetyl αA- and αB crystallin peptides were added to the culture medium at a concentration of 50 μg/3.0 ml, followed by incubation of the lenses for 16 h. The medium was replaced with fresh medium containing 5 μM calcimycin, and the lenses were incubated for an additional 6 h. After this incubation period, the lenses were thoroughly washed with PBS, fixed in 1% buffered formalin overnight, and embedded in paraffin. Microtome sections (5 μm) were subsequently rehydrated and subjected to antigen retrieval via microwave irradiation in 10 mM citrate buffer (pH 6.0). Apoptosis was measured using the In situ Cell Death Detection Kit (Roche, Indianapolis, Ind.) according to the manufacturer's instructions. The sections were counterstained with DAPI to visualize nuclei.

[13] = molecular target: the above four client proteins (citrate synthase, insulin, βL-crystallin, γ-crystallin); assay: cell-based or functional assay
[14] = multiple i.p. injections 5 μg/animal
[15] = multiple i.p. injections 10 μg/animal
[16] = single i.p. injection 2.5 μg/animal 6 h prior to selenite
[17] = single i.p. injection 10 μg/animal 6 h prior to selenite
[18] = 1 μg/ml peptide in BIOPORTER 4 h, 43° C. 1 h
[19] = 2 μg/ml peptide in BIOPORTER 4 h, 43° C. 1 h
[20] = 4 μg/ml peptide in BIOPORTER 4 h, 43° C. 1 h

| Molecule | rate of apoptosis after peptide pretreatment [6] | inhibition of caspase-3 activity [7] | inhibition of caspase-9 activity [8] | inhibition of cataract development [9, 14] | inhibition of cataract development [9, 15] | inhibition of cataract development [9, 16] | inhibition of cataract development [9, 17] | inhibition of protein aggregation in the lens center (H&E) [10] | inhibition of lens epithelial cell apoptosis (TUNEL) [11] | inhibition of apoptosis [5, 18] | inhibition of apoptosis [5, 19] | inhibition of apoptosis [5, 20] | also measured |
| --- | --- | --- | --- | --- | --- | --- | --- | --- | --- | --- | --- | --- | --- |
| 69DK (acetyl) FVIFLDVKHFSPEDLTVK88 (DK(Ac)FVIFLDVKHFSPEDLTVK; listed as Homo sapiens) [αA-acetyl peptide] | 25% | 90% | 53% | strongly inhibited cataracts | entirely inhibited cataracts | ineffective | more effective than the native peptide | inhibited | inhibited apoptosis |  |  |  | chaperone function compared with the native peptide ([1]; peptide:citrate synthase 1:2.5 (w/w)): significantly better; chaperone function compared with the native peptide ([2]; peptide:insulin 1:10 (w/w)): significantly better; chaperone function compared with the native peptide [3]: not different; chaperone function compared with the native peptide [4]: significantly better; more effective than the native peptide in inhibiting apoptosis ([5]; at the 2 and 4 μg concentrations): at least 5%; inhibition of cataract development ([9]; multiple i.p. injections 2.5 μg/animal): partially inhibited cataract development; inhibition of cataract development ([9]; single i.p. injection 5 μg/animal 6 h prior to selenite): more effective than the native peptide |
| 69DKFVIFLDVKHFSPEDLTVK88 (listed as Homo sapiens) [αA-native peptide] | 22% | 80% | 51% | strongly inhibited cataracts | entirely inhibited cataracts | ineffective |  | inhibited | inhibited apoptosis | 12% | 14% | 17% |  |
| 73DRFSVNLDVKHFSPEELKVKV93 (listed as Homo sapiens) [αB-native peptide] | 18% | 80% | 51% |  | inhibited cataract development | ineffective | strongly inhibited cataract development | inhibited | inhibited apoptosis | 8% | 12% | 17% |  |
| DFVIDSPFKLVDLEKVHFTK (listed as Homo sapiens) [αA-scrambled peptide] |  |  |  |  | entirely ineffective |  |  |  |  |  |  |  | chaperone function ([1]; peptide:CS 1:1.25, two times higher concentration than native and acetyl peptides): did not function as a chaperone; chaperone function ([2]; peptide:IN 1:5, two times higher concentration than native and acetyl peptides): did not function as a chaperone; inhibition of apoptosis (in words) ([5]; 4 μg/ml, 43° C. 1 h): did not inhibit apoptosis; inhibition of apoptosis (in words) ([6]; 4 μg/ml): did not inhibit apoptosis; protection from calcimycin-induced apoptosis (in words) [12]: did not protect the cells |
| DRFSVNLDVKHFSPEELKVK(Ac)V [αB-crystallin acetyl peptide 73…(acetyl)V93] |  |  |  |  |  |  |  |  |  |  |  |  | chaperone function, against the native αB peptide (percent weaker) [13]: 10 to 30% |
